# Entries after “also recorded” stand apart in the source; their conditions may differ.
# Columns and labels:
# [1] = Bronchodilator responsiveness (FEV1 reversal with albuterol); assay type: in vivo, human
# From the text: (§1) Study subjects. Thirty-nine adult asthmatics were enrolled in this study. […] Patients completed asthma questionnaires (ACQ) to assess their asthma control. […] Twelve healthy nonatopic subjects underwent bronchoscopy as controls. Smokers were excluded from participation in this study. Informed consent was obtained from all study participants before enrollment in this study.
# 26 adult asthma patients were enrolled. Sample collection involved assessment of patients with a clinical history of asthma, airflow limitation (baseline FEV1≤85% predicted) and either airway hyperresponsiveness (PC20 methacholine<8 mg/ml) or bronchodilator responsiveness (>12% improvement in FEV1% predicted after […] metered-dose inhaler albuterol).
# [2] = system: peripheral blood monocytes from asthmatics; experiment: Effects of inhibitors on MKP-1 and IL-8 mRNA induction by H. parainfluenzae and on cellular response to corticosteroids (real time PCR); assay type: cell-based, human; details: for cellular sensitivity to corticosteroids in vitro (MKP-1 mRNA induction by DEX) in the presence of H. parainfluenzae: inhibitor 1 h, bacteria 15 min, then 3 h DEX, FIG. 4C; for MKP-1 mRNA induction by H. parainfluenzae / IL-8 mRNA induction by H. parainfluenzae: monocytes preincubated with inhibitor 1 h (TAK1 inhibitor 2 μM, others 10 μM); for MKP-1 mRNA induction by H. parainfluenzae: bacteria to cell ratio 1:1, FIG. 4A; for IL-8 mRNA induction by H. parainfluenzae: bacteria to cell ratio 1:1, FIG. 4B
# Experimental: Cell culture and treatment. Peripheral blood mononuclear cells (PBMC) were isolated from asthma patients. Monocytes were prepared by negative selection using Human Monocyte Isolation Kit II (Milteniyi Biotech Inc., Auburn, CA). BAL macrophages were enriched by 3 h plastic adhesion. Cell purity was ≥95%. In all experiments, monocytes and BAL macrophages were cultured in the X-VIVO™ 15 serum free medium overnight; medium was replaced with X-VIVO™ 15 medium without antibiotics prior to addition of bacteria. Bacteria were added to 10^6 cells/ml in culture at 0.1 or 1 bacteria per cell.
# In vitro response to corticosteroids in the presence of bacteria. 0.5×10^6 monocytes or 2.5×10^5 BAL macrophages per condition were cultured overnight in X-VIVO™ 15 media, treated with 0.1 to 1 bacteria per cell or 10 ng/ml of E. coli strain 0111: B4 LPS (Sigma-Aldrich Corp) for 15 min and stimulated with 10^−6 M dexamethasone (DEX) for an additional 3 h still in the presence of bacteria. Following incubation the cells were preserved in RLT buffer (Qiagen, Inc., Valencia, CA). RNA was extracted using RNAEASYR Mini kit (Qiagen), and analyzed by real-time PCR as previously described (Goleva E et al., J Allergy Clin Immunol 2012; 129: 687-93e1) for the expression of corticosteroid-regulated targets mitogen activated kinase phosphatase 1 (MKP-1), and IL-8. 18s RNA was measured as a house keeping gene. All primers were purchased from Applied Biosystems (Life Technologies Corporation, Carlsbad, CA). Standard curves for gene targets were generated using the fluorescent data from two-fold serial dilutions of total RNA of the highest expression sample. Quantities of each target gene in test samples were normalized to the corresponding levels of the housekeeping gene (18s RNA) in each sample. Fold induction and fold suppression by DEX of selected gene targets was calculated for cells cultured in media, with LPS or with bacteria.
# The effects of inhibitors on cellular response to corticosteroids. To examine whether MAPK inhibition or transforming growth factor beta associated kinase 1 (TAK1) inhibition reverses the corticosteroid resistant response to pathogenic microbes, monocytes were pretreated with either TAK1 inhibitor (5Z)-7-Oxozeaenol, Curvularia sp. (Calbiochem, EMD Serono, Inc., Rockland, MA) (2 μM), the p38 inhibitor, SB203580 (10 μM) (Calbiochem) or the cocktail of the three MAPK inhibitors (SB203580, p38 inhibitor; PD98059, MEK1/ERK inhibitor (Invitrogen, Life Technologies, Grand Island, NY) and SP600125, JNK inhibitor (InVivogen, San Diego, CA), all at 10 μM) for 1 h prior to stimulation with bacteria and cellular response to corticosteroids was evaluated by real time PCR as described above. To assess the efficacy of inhibitors on suppression of cell activation induced by bacteria cells were pretreated with inhibitors for 1 h or cultured in media, stimulated with H. parainfluenzae for 15 min. Protein lysates were prepared as described above. ERK and hsp27 phosphorylation as downstream targets for TAK1 and p38 MAPK activation, respectively, were assessed by Western blot as described in (Zhang Y et al., J Immunol 2012, in press; Li L B et al., J Allergy Clin Immunol 2004; 114: 1059-69; Zhang Y et al., J Biol Chem 2009; 284: 24542-52).
# Toll-like receptor (TLR) engagement by bacteria is the major pathway of cell activation by bacteria (Akira S, Nat Rev Immunol 2004; 4: 499-511). TAK1 phosphorylation represents a key downstream TLR signaling branching point that controls both MAPK and NFKB pathway activation in the cells (Liew F Y et al., Nat Rev Immunol 2005; 5: 446-58). To address the role of TLR signaling pathways in MAPK and TAK1 activation by H. parainfluenzae and the alteration of cellular response to corticosteroids, asthmatic peripheral blood monocytes were preincubated with/without TAK1 and MAPK inhibitors for 1 hour, stimulated with bacteria followed by treatment with DEX or medium and analyzed by real time PCR.
# hsp27 phosphorylation = experiment: Western blot of hsp27 phosphorylation as downstream read out for p38 MAPK activation by H. parainfluenzae; assay type: cell-based, human; details: 10 μM inhibitor, 15 min H. para, bacteria to cell ratio 1:1, monocytes from asthma patients, FIG. 4D
# Experimental: (§2) P38 mitogen activated protein kinase (MAPK) stimulation by bacteria. P38 MAPK activation in response to various concentrations of pathogenic and commensal bacteria as well as time course of p38 activation in response to these bacteria was determined. Cells were stimulated with 0.1 and 1 bacteria per cell, at kinetic time frames from 15 min to 3 h (monocytes), or after 3h of stimulation with bacteria (BAL macrophages). […] Protein concentration was determined by Bradford assay and cell lysates were analyzed for p-p38 MAPK expression by Western blot as described by us earlier (Zhang Y et al., J Immunol 2012, in press).
# (§3) The effects of inhibitors on cellular response to corticosteroids. […] (Calbiochem, EMD Serono, Inc., Rockland, MA) (2 μM), the p38 inhibitor, SB203580 (10 μM) (Calbiochem) or the cocktail of the three MAPK inhibitors (SB203580, p38 inhibitor; PD98059, MEK1/ERK inhibitor (Invitrogen, Life Technologies, Grand Island, NY) and SP600125, JNK inhibitor (InVivogen, San Diego, CA), all at 10 μM) for 1 h prior to stimulation with bacteria and cellular response to corticosteroids was evaluated by real time PCR as described above. […]
# [3] = Clinical response to oral prednisone burst (FEV1 percent predicted); assay type: in vivo, human; details: for FEV1% change after Prednisone burst, (Mean ± SD): prednisone 20 mg by mouth twice daily for 7 days; for FEV1% change after Prednisone burst, (Mean ± SE): one week 40 mg/d oral prednisone
# From the text: as §1
# Corticosteroid response of asthmatics was classified based on their prebronchodilator morning FEV1% predicted response to one week course of 40 mg/d oral prednisone.
# ERK phosphorylation = experiment: Western blot of ERK phosphorylation as downstream read out for TAK1 activation by H. parainfluenzae; assay type: cell-based, human; details: 2 μM inhibitor, 15 min H. para, bacteria to cell ratio 1:1, monocytes from asthma patients, FIG. 4D
# Experimental: as §2, §3
compound,measurement,setting,value
"CC(C)(C)NCC(O)c1ccc(O)c(CO)c1 (centres unmarked) [Albuterol, albuterol]","FEV1% reversal with Albuterol, (Mean ± SD)","[1]; CR asthma, n = 29, 180 μg albuterol inhaled",15.0 ± 9.4%
same,"FEV1% reversal with Albuterol, (Mean ± SD)","[1]; CS asthma, n = 10, 180 μg albuterol inhaled",37.2 ± 24.7%
same,"FEV1% reversal with Albuterol, (Mean ± SD)","[1]; Normal controls, n = 12",5.1 ± 2.4%
same,"FEV1% reversal with Albuterol, (Mean ± SE)","[1]; SR asthma, n = 12",13.3 ± 2.1 %
same,"FEV1% reversal with Albuterol, (Mean ± SE)","[1]; SS asthma, n = 13",41.1 ± 8.7%
"C[S+]([O-])c1ccc(-c2nc(-c3ccncc3)c(-c3ccc(F)cc3)[nH]2)cc1 (centres unmarked) [P38 MAPK inhibitor, SB203580]",cellular sensitivity to corticosteroids in vitro (MKP-1 mRNA induction by DEX) in the presence of H. parainfluenzae,[2],failed to restore
same,MKP-1 mRNA induction by H. parainfluenzae,[2],reduced
same,IL-8 mRNA induction by H. parainfluenzae,[2],reduced
same,hsp27 phosphorylation by H. parainfluenzae,hsp27 phosphorylation,fully inhibited
"C[C@]12C=CC(=O)C=C1CC[C@@H]1[C@@H]2C(=O)C[C@@]2(C)[C@H]1CC[C@]2(O)C(=O)CO [Prednisone, prednisone]","FEV1% change after Prednisone burst, (Mean ± SD)","[3]; CR asthma, n = 29",−0.2±5.9%
same,"FEV1% change after Prednisone burst, (Mean ± SD)","[3]; CS asthma, n = 10",31.0±23.5%
same,"FEV1% change after Prednisone burst, (Mean ± SE)","[3]; SR asthma, n = 12",0.8 ± 1.9 %
same,"FEV1% change after Prednisone burst, (Mean ± SE)","[3]; SS asthma, n = 13",42.2 ± 10.0%
"COc1cc(O)c2c(c1)/C=C/C[C@H](O)[C@H](O)C(=O)/C=C\C[C@H](C)OC2=O [TAK1 inhibitor, (5Z)-7-Oxozeaenol]",ERK phosphorylation by H. parainfluenzae,ERK phosphorylation,fully inhibited
same,cellular sensitivity to corticosteroids in vitro (MKP-1 mRNA induction by DEX) in the presence of H. parainfluenzae,[2],restoration of cellular sensitivity to corticosteroids; also recorded: steroid sensitive
same,MKP-1 mRNA induction by H. parainfluenzae,[2],significant inhibition
same,IL-8 mRNA induction by H. parainfluenzae,[2],significant inhibition

# From patent publication US20250003969A1, “METHODS TO IDENTIFY AND TREAT SUBJECTS HAVING CORTICOSTEROID-RESISTANT INFLAMMATORY DISEASES” (priority 2013, published 2025)
